How the values were obtained:
[1] = molecular target: T1, human mineralocorticoid receptor (MR) (Homo sapiens, UniProt P08235); test: Nuclear hormone receptor panel screen (luciferase reporter, HEK293), MR; format: cell-based
T1 construct: expressed in transfected cells; host or cells: HEK293
T1 sequence (P08235 1-984): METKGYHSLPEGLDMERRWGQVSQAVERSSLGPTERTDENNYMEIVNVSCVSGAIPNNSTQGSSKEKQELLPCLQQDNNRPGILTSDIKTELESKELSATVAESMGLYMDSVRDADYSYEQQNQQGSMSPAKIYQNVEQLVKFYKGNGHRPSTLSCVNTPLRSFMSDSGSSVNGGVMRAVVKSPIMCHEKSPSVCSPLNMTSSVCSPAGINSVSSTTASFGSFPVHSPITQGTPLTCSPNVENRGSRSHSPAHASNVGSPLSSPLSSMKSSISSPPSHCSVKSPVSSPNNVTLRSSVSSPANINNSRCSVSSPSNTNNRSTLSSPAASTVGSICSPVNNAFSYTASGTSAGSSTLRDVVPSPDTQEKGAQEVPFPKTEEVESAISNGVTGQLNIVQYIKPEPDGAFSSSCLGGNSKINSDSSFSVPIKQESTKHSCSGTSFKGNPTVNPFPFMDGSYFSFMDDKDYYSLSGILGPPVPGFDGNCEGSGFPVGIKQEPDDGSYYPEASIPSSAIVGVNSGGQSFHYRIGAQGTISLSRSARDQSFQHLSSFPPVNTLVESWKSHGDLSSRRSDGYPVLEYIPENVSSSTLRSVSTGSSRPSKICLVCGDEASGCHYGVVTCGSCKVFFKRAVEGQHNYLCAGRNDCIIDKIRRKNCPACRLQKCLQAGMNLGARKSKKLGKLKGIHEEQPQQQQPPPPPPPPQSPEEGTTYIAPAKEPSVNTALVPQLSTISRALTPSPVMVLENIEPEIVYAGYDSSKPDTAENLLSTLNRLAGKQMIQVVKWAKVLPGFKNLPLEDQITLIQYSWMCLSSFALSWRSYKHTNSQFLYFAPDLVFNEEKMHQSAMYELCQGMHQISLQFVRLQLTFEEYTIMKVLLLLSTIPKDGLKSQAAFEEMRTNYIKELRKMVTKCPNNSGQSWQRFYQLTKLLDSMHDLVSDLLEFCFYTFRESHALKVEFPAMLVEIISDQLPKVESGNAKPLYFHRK
Excerpt: Aldosterone exerts it physiological effects through interaction with the mineralocorticoid receptor. Following cytoplasmic binding of aldosterone to MR, the ligand receptor complex translocates to the cell nucleus where it binds to hormone response elements on DNA to initiate expression of target genes. […] The solvents, reagents, and ligands employed in the functional assay are readily available from commercial sources, or can be prepared by one of ordinary skill in the art.
Human embryonic kidney HEK293 cells are transfected with steroid hormone receptor and reporter gene plasmids using a suitable transfection reagent such as Fugene™. […] After 24 hours incubation with test compounds, cells are lysed and luciferase activity is determined using standard techniques.
Data are fitted to a four parameter-fit logistic curve to determine EC50 values. […] IC50 values are determined similarly using antagonist mode assay data. In the antagonist mode, percent inhibitions are determined by comparing test compound activity in the presence of low concentration of agonist (0.08 nM aldosterone for MR, 0.25 nM dexamethasone for GR, 0.66 nM of methyltrienolone for AR, and 0.08 nM of promegestone for PR) to the response produced by the same low concentration of agonist in the absence of test compound.

human MR = molecular target: T2, human MR (Homo sapiens, UniProt P08235); test: hMR competitive antagonist assay (Schild analysis); format: cell-based; settings: Schild analysis versus aldosterone, HEK293 transfected with human MR
T2 construct: expressed in transfected cells; host or cells: HEK293
T2 sequence (P08235 1-984): T1 sequence (P08235 1-984)
Excerpt: Human embryonic kidney HEK293 cells are transfected with human MR using the same transfection reagents, plasmids, promoters, reporter constructs, buffers, and procedures as described above for the Nuclear Hormone Receptor Panel Screen.

O=c1[nH]c2cc(/C=C3\c4ccccc4COc4cc(F)ccc43)ccc2n1[C@@H]1C[C@@H]2COCCN2C1 [Compound (I), 5-((E)-(3-fluorodibenzo[b,e]oxepin-11(6H)-ylidene)methyl)-1-((7R,8aR)-hexahydro-1H-pyrrolo[2,1-c][1,4]oxazin-7-yl)-1H-benzo[d]imidazol-2(3H)-one]
EC50 ([1]; agonist mode): > 10 µM
IC50 ([1]; antagonist mode, 0.08 nM aldosterone): ~0.021 µM
Kb (human MR): ~0.0051 µM

From patent US8658638B2, “Mineralocorticoid receptor antagonist and methods of use” (priority 2009, dated 2014)
